Several values for one entry are separate records, joined by “and”; a condition that tells them apart may be missing. Equal values may be shown once.
Experiments:
[1] = test system: Escherichia coli; assay: Inhibitory activity (Enzyme inhibition index) against dihydropteroate synthase from Escherichia coli.
[2] = test system: Escherichia coli; assay: Inhibitory activity (apE=log(1/EII50)) against dihydropteroate synthase from Escherichia coli

Row | EII50 [1] | apE [2] | Compound
1 | 1.91 and 1.46 | – | Nc1ccc(S(=O)(=O)c2c(O)cc(O)cc2O)cc1
2 | 0.51 and 0.71 | 0.29 and 0.15 | Nc1ccc(S(=O)(=O)c2ccc(O)cc2O)cc1
3 | 1.89 | -0.28 | Cc1ccc(S(=O)(=O)c2ccc(N)cc2)c(C)c1
4 | 0.23 and 0.34 | 0.66 and 0.47 | Cc1cc(O)ccc1S(=O)(=O)c1ccc(N)cc1
5 | 3.21 | -0.51 | COc1ccc(S(=O)(=O)c2ccc(N)cc2)c(OC)c1
6 | 0.51 and 0.25 | 0.29 and 0.59 | Cc1cc(O)cc(C)c1S(=O)(=O)c1ccc(N)cc1
7 | 1.69 | -0.23 | Cc1cc(C)c(S(=O)(=O)c2ccc(N)cc2)c(C)c1
8 | 36.3 | -1.56 | Nc1ccc(S(=O)(=O)c2ccc([N+](=O)[O-])cc2[N+](=O)[O-])cc1
9 | 1.77 | -0.25 | COc1cc(C)c(S(=O)(=O)c2ccc(N)cc2)c(C)c1
10 | 1.59 | -0.2 | Nc1ccc(S(=O)(=O)c2ccc(N)cc2N)cc1
11 | 3.31 | -0.52 | Nc1ccc(S(=O)(=O)c2c(Cl)cc(Cl)cc2Cl)cc1
12 | 12.9 | -1.11 | COc1cc(OC)c(S(=O)(=O)c2ccc(N)cc2)c(OC)c1
13 | 2.24 | -0.35 | Nc1ccc(S(=O)(=O)c2ccc(Cl)cc2Cl)cc1
14 | 0.26 | 0.59 and 0.58 | Nc1ccc(S(=O)(=O)c2ccc(O)cc2Cl)cc1
15 | 3.02 | -0.48 | COc1cc(C)cc(C)c1S(=O)(=O)c1ccc(N)cc1
16 | 2.64 | -0.42 | Nc1ccc(S(=O)(=O)c2ccc(N)cc2)cc1
17 | 1.77 | -0.25 | COc1ccc(S(=O)(=O)c2ccc(N)cc2)c(C)c1

— ChEMBL document CHEMBL1124359, “Quantitative structure-activity relationships in dihydropteroate synthase inhibition by multisubstituted sulfones. Design and synthesis of some new derivatives with improved potency” (J Med Chem, 1989)
